What was measured:
[1] = tested on: primary mouse colon fibroblasts; assay: Inflammatory gene expression (RT-qPCR/RNAseq) in fibroblasts treated with APTKA conditioned medium; format: cell-based
Experimental: (A) Schematic illustration of APTKA or APTK organoids supernatant collection and treatment of primary mouse colon fibroblasts of unchallenged wildtype C57BL/6 mice. […] (F) Relative expression analysis by RT-qPCR of inflammatory genes in untreated wildtype and APTKA conditioned medium treated fibroblasts in the presence of IKKß inhibitor ML120B (30 μM) and p38 MAPK inhibitor SB203580 (10 μM) for 24 h (n=4 independent wells per group). Data are mean±SD. p<0.05 by one-way ANOVA followed by Tukey's multiple comparisons test. Representative results from one experiment which has been independently repeated 3 times. (G and H) RNA sequencing analysis of APTKA (n=3) and APTK (n=3) organoids: (G) heat map analysis; (H) differentially expressed cytokines in APTKA (Log 2 fold change≤−1) compared to APTK organoids (log 2 fold Change≥1). p-value<0.05. (I) RT-qPCR analysis of inflammatory genes in APTKA conditioned fibroblasts treated with control IgG, α-IL-1α, α-IL-33, α-TNF-α, α-BAFF or α-CXCL16 neutralizing antibodies (2 μg/mL each) for 24 h (n=4 independent wells per group). Data are mean±SD. **** p<0.0001 by one-way ANOVA followed by Tukey's multiple comparisons test. Experiment performed twice. (J) RNA expression profiles of inflammatory genes in APTKA conditioned fibroblasts stimulated for 24 h then subjected to anakinra (10 μg/mL), APTKA fresh or regular medium treatments for another 24 h (n=4 independent wells per condition). Data are mean±SD; p<0.05 by one-way ANOVA followed by Tukey's multiple comparisons test. Representative results from one experiment which has been independently repeated 2 times.
To examine whether APTK and APTKA tumour organoids differentially affect surrounding fibroblasts in tumours directly in a paracrine manner, supernatants were collected from both tumour organoid lines and treated primary intestinal fibroblasts of unchallenged wildtype mice for 24 hours with the two different tumour-conditioned media ex vivo (FIG. 3A). RNAseq analysis confirmed distinct gene expression patterns in fibroblasts exposed to the two organoid supernatants (FIG. 3B).
The inventors then aimed to identify the upstream factors secreted by APTKA organoids that were responsible for activating NF-κB and p38 in fibroblasts. To this end RNAseq analysis of APTK and APTKA tumour organoids were performed and identified several differentially expressed genes encoding cytokines (FIG. 3G, H). Using neutralizing antibodies, NF-κB and p38 inducing cytokines TNFα, IL-1α, IL-33, BAFF or CXCL16 were blocked in APTKA supernatants and expression of Cxcl1, Cxcl2, Cxcl5 and Ilia as inflammatory marker genes in fibroblasts was examined.
To do so, fibroblasts were stimulated for 24 hours with APTKA conditioned medium before adding anakinra, adding fresh APTKA medium or changing medium to regular medium.

[2] = tested on: APTKA conditioned fibroblasts; assay: Fibroblast morphology after fractionated irradiation (3×2 Gy); format: cell-based, mouse
Experimental: (A) Schematic illustration of APTKA organoids supernatant collection and treatment of colon fibroblasts from unchallenged wildtype C57BL/6 mice for 12 h followed by 3×2 Gy irradiation. Microscopic, proteomic & transcriptomic analysis were performed 72 h post first irradiation. (B) Microscopic captures of non-irradiated wildtype (WT) and APTKA conditioned fibroblasts. Remaining captures belong to irradiated fibroblasts: WT, IL-1α (1 μg/mL) stimulated WT, and APTKA conditioned media minus or plus anakinra (20 μg/mL) treated fibroblasts. Scale bars=200 μm. (C) Mass spectrometric analysis of matrisome profiles of 3×2 Gy irradiated (n=8) and non-irradiated (n=8) APTKA conditioned fibroblasts. […] (G) Immunoblot analysis of untreated and irradiated APTKA conditioned fibroblasts. Representative results from one experiment which has been independently repeated 2 times. (H) SA-ß gal staining of untreated and irradiated APTKA fibroblasts. Scale bars=100 μm. (I and J) p21 and pH2AX immunofluorescent staining of untreated and irradiated APTKA fibroblasts. Scale bars=[…]. Data are mean±SD. ** […] and *** p<0.001 by t-test. (K) Nitrite concentration determined by Griess assay in conditioned media from WT, APTK media, APTKA media, IL-1α (1 μg/mL) stimulated and APTKA plus anakinra (20 μg/mL) treated fibroblasts for 72 h (n=10 independent wells per group). […]

## anakinra: Kineret®, an interleukin-1 receptor antagonist
[1]; 24 h APTKA conditioned medium, then anakinra 10 μg/mL for another 24 h
  expression of Cxcl1, Cxcl5 and Mmp13 in already polarized fibroblasts: completely reverted expression of these genes
[1]; APTKA conditioned medium plus anakinra, data not shown
  upregulation of pro-inflammatory genes in fibroblasts: prevented upregulation of pro-inflammatory genes
[2]; wildtype fibroblasts, APTKA conditioned medium plus anakinra 20 μg/mL
  APTKA-induced elongated, spindle like morphology after irradiation: prevented the APTKA-induced phenotype

## recombinant IL-1α: recombinant cytokine used to stimulate fibroblasts
[1]; recombinant IL-1α alone, compared with APTKA supernatant, data not shown
  transcriptomic profile induced in fibroblasts: sufficed to induce a similar transcriptomic profile as APTKA supernatant
[2]; recombinant IL-1α 1 μg/mL alone
  fibroblast morphology after irradiation: sufficient to cause a comparable morphology after irradiation
